Literature values as cited in US11447517B2, “Galactoside inhibitor of galectins” (GALECTO BIOTECH AB, priority 2018, dated 2022).

Test system: galectins
Details: cited from earlier work

| SMILES | Affinity, times lower than lactose (relative to lactose) | Kd (Leffler 2001, Leffler et al. 2004, read-out: Kd, all galectins) [µM] |
| --- | --- | --- |
| O=C[C@H](O)[C@@H](O)[C@@H](O)[C@H](O)CO [D-galactose] | 50-100 times | – |
| OC[C@H]1O[C@@H](O[C@H]2[C@H](O)[C@@H](O)C(O)O[C@@H]2CO)[C@H](O)[C@@H](O)[C@H]1O (some centres unmarked) [lactose] | – | 500 to 1000 |
